From patent US20240391880A1, “KCa3.1 INHIBITORS FOR PODOCYTE PROTECTION” (Icahn School of Medicine at Mount Sinai, priority 2021, published 2024)
“Also recorded” adds a separate entry of the source.

Key:
YAP knockdown podocytes = assay: Rescue of YAP knockdown podocyte morphology (phalloidin/paxillin staining); type: cell-based, mouse
Procedure: Podocytes were cultured as previously described (2, 14, 35). Briefly, conditionally immortalized murine podocytes were cultured in Dulbecco's modified Eagle's medium (DMEM; Life Technologies) supplemented with 10% heat-inactivated fetal bovine serum (Life Technologies) and 100 U/mL penicillin-streptomycin (Life Technologies) on type I collagen (Corning, Corning, NY) coated dishes or flasks. Undifferentiated podocytes were maintained at 33° C. in the presence of 10 U/mL mouse γ-interferon (Cell Sciences, Canton, MA) to drive T-antigen expression. To induce differentiation, podocytes were thermo-shifted to a 37° C. incubator and switched to medium lacking γ-interferon.
The pLKO.1 plasmids (YAP shRNA or control shRNA) along with the helper plasmids psPAX^2 and pMD2.G were transfected into HEK293T cells at 70% confluence using FuGENE 6 (Promega). Medium was replaced 16-18 h after transfection. 36 and 60 h after transfection, virus-containing supernatants were harvested and centrifuged at 3,000 rpm for 5 min. Viral particles were then passed through a 0.45-μm filter. The supernatants were subsequently used for the infection of target cells in the presence of 4 μg/ml Polybrene (Sigma). […]
Changes in the organization of the actin cytoskeleton were assessed by phalloidin staining and paxillin staining as described previously. […]

KCa3.1 [1] = biological target: T1, KCa3.1 (Mus musculus, UniProt O89109); assay: Whole-cell patch clamp electrophysiology in YAP silenced podocytes; type: cell-based
T1 construct: endogenous in cells; host or cells: YAP shRNA (YAP KD) conditionally immortalized mouse podocytes
Procedure: (§1) Cells plated on coverslips are transferred to a submersion recording chamber and continuously perfused (2-4 ml/min) with RPMI cell culture medium containing (in mM): NaCl 124, KCl 2.5, NaH2PO4 1.2, NaHCO3 24, HEPES 5, glucose 12.5, MgSO4 2, and CaCl2 2, pH 7.4. The solution is continuously bubbled with 95% O2/5% CO2, and recordings are obtained at 25±1° C. Cells are recorded under infrared differential contrast optics (BX51; Olympus). After control readings are measured, the solution is then switched to the solutions containing the molecules. […] Recording pipettes (3-5 MΩ), pulled from borosilicate glass, are filled with internal solution containing (in mM): K gluconate 120, HEPES 10, KCl 20, MgCl2 1, MgATP 2, Na2GTP 0.5, Na-phosphocreatine 10, CaCl2 1.71 and EGTA 2, pH 7.25. Data are acquired with a Multiclamp 700 A amplifier (Molecular Devices), subsequently filtered at 10 kHz and digitized at 10 kHz, and analysis is performed with pClamp 11 software (Molecular Devices). Whole-cell data will be collected. All data will be recorded at room temperature.

KCa3.1 [2] = biological target: T2, KCa3.1 (Homo sapiens, UniProt O15554); assay: Whole-cell patch clamp electrophysiology in KCNN4 overexpression podocytes; type: cell-based, mouse; details: KCNN4 OE podocytes
T2 construct: expressed in transfected cells; host or cells: immortalized mouse podocytes (KCNN4 OE)
Procedure: as §1

YAP KD podocytes = assay: Intracellular calcium dynamics in YAP KD podocytes (Fluo-3, ATP stimulation); type: cell-based, mouse; details: for CaD50 / time to peak of calcium uptake: YAP silenced podocytes, upon ATP stimulation
Procedure: Intracellular calcium dynamics were measured in wild type and YAP KD podocytes loaded with Fluo-3, stimulated with ATP ([…]) and imaged for 3 minutes at 1 frame per 0.5 seconds on a high-speed Zeiss 880 laser scanning confocal microscope with automated CO2incubator stage.
Isolated cells were superfused with Tyrode solution containing (mm): NaCl 140, KCl
5, Hepes 5, NaH2PO4 1, MgCl2 1, CaCl2 1.8, glucose 10 (pH 7.4). To allow for confocal imaging of [Ca^2+]i, cells were loaded for 30 min with 5 μm fluo-3 AM (Molecular Probes, Eugene, OR, USA), then washed and stored for 20 min in Tyrode solution to enable dye de-esterification. Confocal imaging in line-scan mode was performed on a Zeiss 510 microscope. Cells were scanned with light at 488 nm from an argon-ion laser, and fluorescence above 505 nm was recorded. To generate repeated Ca^2+ sparks at a limited number of locations, 50 nm ryanodine (Calbiochem, San Diego, CA, USA) was added to the external solution.

podocytes = assay: LPS-induced podocyte injury in vitro; type: cell-based, mouse; details: LPS 100 μg/ml for 24 hrs, co-treatment
Procedure: (§2) The ability of KCa3.1 inhibitors to protect from podocyte injury induced by lipopolysaccharide (LPS) was tested in vitro and in vivo. […] The protective effect was tested in vivo by administering LPS to 8-week old C57BL/6J mice at 0 hr and 24 hrs.
Differentiated podocytes were exposed to different doses of LPS (50-100 μg/ml) for 24 hours. Changes in the organization of the actin cytoskeleton were assessed by phalloidin staining and paxillin staining as described previously. Each set of experiments was repeated at least three times. Briefly, cells were fixed with 4% PFA, 4% sucrose in PBS at room temperature for 15 minutes and then permeabilized with 0.3% Triton X-100 in PBS with washes in between. Coverslips were washed 3× with PBS and incubated blocking solution (2% FCS, 2% BSA, 0.2% fish gelatin) for 30 minutes at room temperature before further incubation with one of the primary antibodies for 1 hour at room temperature. For double labeling, sections were washed three times with PBS for 5 minutes, and the second primary antibody was applied for 60 minutes. Antigen-antibody complexes were visualized with secondary antibodies 1:500 (Life Technologies) conjugated with fluorochrome (Alexa 488, Alexa 594, or Alexa 647) for 1 hour at room temperature. For stress fibers, phalloidin-rhodamine was used. For the nuclei, we used DAPI. Confocal microscopy with Leica DMI was done.

C57BL/6J mice = assay: LPS-induced glomerular disease in mice; type: in vivo, mouse; details: for albuminuria: 48 hours after LPS injection, compound given at 12 hr and 24 hr
Procedure: as §2
Albuminuria was qualitatively screened using a 10% SDS-PAGE gel followed by Coomassie-blue staining. BSA standards of 0.1, 0.5, 5 μg were used and 5 μl urine was used from each sample to quantify urine albumin in duplicate using commercial kits, according to the manufacturer's protocol (mouse albumin ELISA, Bethyl Laboratories).

[3] = expected K+ equilibrium (VK) calculated at -83 mV

Structure (SMILES): Brc1ccccc1-c1nc2ccccc2[nH]1 [BT563, 2-(2-bromophenyl)-1H-benzo[d]imidazole]
- rescue from focal adhesion loss and F-actin reorganization (YAP knockdown podocytes): most consistently rescued
- KCa3.1 conductance (KCa3.1 [1]): decreased KCa3.1 conductance
- crossover potential of before and after I-V plots (KCa3.1 [1]; [3]): closer to the expected K+ equilibrium (VK)
- KCa3.1 conductance (KCa3.1 [2]): decreased KCa3.1 conductance
- stimuli to peak (YAP KD podocytes; YAP knockdown cells, 5uM and 10 uM): significantly decreased
- CaD50 (YAP KD podocytes): decreased
- time to peak of calcium uptake (YAP KD podocytes): decreased
- LPS-induced actin cytoskeletal reorganization and loss of focal adhesions (podocytes): abrogated
- albuminuria (C57BL/6J mice): statistically significant decrease; also recorded: decreased albuminuria
- foot process injury (scanning EM) (C57BL/6J mice; LPS treated mice): not seen; also recorded: rescue of LPS-induced podocyte foot process disruption

Structure (SMILES): Cc1ccn2cc(-c3ccccc3)nc2c1 [BT564, 7-methyl-2-phenylimidazo[1,2-α]pyridine]
- rescue from focal adhesion loss and F-actin reorganization (YAP knockdown podocytes): most consistently rescued
- KCa3.1 conductance (KCa3.1 [1]): decreased KCa3.1 conductance
- KCa3.1 conductance (KCa3.1 [2]): decreased KCa3.1 conductance
- CaD50 (YAP KD podocytes): decreased
- time to peak of calcium uptake (YAP KD podocytes): decreased
- LPS-induced actin cytoskeletal reorganization and loss of focal adhesions (podocytes): abrogated
- albuminuria (C57BL/6J mice): not

Structure (SMILES): Cc1cc2nc(N)oc2c2ccccc12 [SKA121, reference compound]
- KCa3.1 conductance (KCa3.1 [1]): enhanced
- KCa3.1 conductance (KCa3.1 [2]): enhanced

Structure (SMILES): Clc1ccccc1C(c1ccccc1)(c1ccccc1)n1cccn1 [TRAM-34, reference compound]
- KCa3.1 conductance (KCa3.1 [1]): decreased
- KCa3.1 conductance (KCa3.1 [2]): decreased
- crossover potential of before and after I-V plots (KCa3.1 [2]; [3]): did cross at the expected K+ equilibrium
- CaD50 (YAP KD podocytes): decreased
- time to peak of calcium uptake (YAP KD podocytes): decreased
